Measurements as given in patent US12521393B2, “Cytotoxicity targeting chimeras for CCR2-expressing cells” (GLAXOSMITHKLINE INTELLECTUAL PROPERTY DEVELOPMENT LIMITED, priority 2021, dated 2026).

How the values were obtained:
[1] = target: anti-cotinine antibody (SEQ ID NO: 11/12, rabbit variable region with human IgG1 Fc DE mutation); assay: SPR binding of anti-cotinine antibody to ARM compounds, Biacore T200, 37° C. (Example 202); details: SPR Biacore T200, 37° C., pH 7.4, antibody SEQ ID NO: 11/12 captured on protein A; Kd in molar
Method in brief: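 Antibody captured on a protein A chip; ARM compounds injected at 100 μL/min (200 s association, 2000 s dissociation), 3-fold 5-point series from 200 nM, at 37 °C in HEPES pH 7.4 buffer with 0.005% P20 and 1% DMSO. Double-referenced sensorgrams fit 1:1 for kon, koff, Kd (koff/kon), residence time (1/koff); pKd averaged across runs.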

[2] = tested on: CCR2 expressing cells (CD11b+Ly6c+Hi) in peripheral blood; assay: In vivo depletion assay, flow cytometry of peripheral blood (Example 201); design: species or system human CCR2 knock-in mice (C57 background); details: hCCR2 knock-in mice, IV 0.1 mpk compound + 10 mpk anti-cotinine antibody (SEQ ID NO: 13/14), peripheral blood at 48 hr
Method in brief: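 Mice dosed with compound formulated in saline/DMSO/PBS, with anti-cotinine antibody (rabbit variable region, mouse IgG2a Fc) where required, pre-incubated 30 min at room temperature. Terminal peripheral blood RBC-lysed, Fc-blocked, stained for CD45, CD3, CD11b, Ly6C, human CCR2 and 7AAD; percent depletion of CD11b+Ly6c+Hi cells determined by flow cytometry.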

[3] = tested on: endogenous target monocytes in human PBMC; assay: PBMC ex vivo monocyte depletion flow cytometry assay (Example 200); format: cell-based; details: with anti-cotinine antibody (SEQ ID NO: 11/12), 18-24 hours, EC50 in molar, read-out: Ex Vivo Depletion Assay pEC50 (converted)
Method in brief: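 Monocyte depletion is reported as pEC50, averaged or given individually across runs, and read by flow cytometry staining CD45, CD14 and CD4 with a viability dye. Compounds, diluted four-fold over 11 points from 1 mM DMSO stocks, were combined with 30 μg/mL Fc-enhanced anti-cotinine antibody and human PBMC, then incubated 18-24 h at 37° C.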

Row | SMILES | pKd of Antibody for ARM Compound of Formula (I) [1] | % Depletion of CCR2 expressing cells [2] [%] | EC50 [3] [nM]
1 | CC(C)N(C)[C@@H]1CC[C@H](N2CC[C@H](Nc3ncnc4ccc(C(F)(F)F)cc34)C2=O)[C@H](NC(=O)CCCC(=O)N[C@H]2CC[C@@H](CNC(=O)CCOCCNC(=O)[C@H]3CC(=O)N(C)[C@@H]3c3cccnc3)CC2)C1 [Example 179, N^1-((1R,2S,5R)-5-(isopropyl(methyl)amino)-2-((S)-2-oxo-3-((6-(trifluoromethyl)quinazolin-4-yl)amino)pyrrolidin-1-yl)cyclohexyl)-N^5-((1R,4S)-4-((3-(2-((2S,3S)-1-methyl-5-oxo-2-(pyridin-3-yl)pyrrolidine-3-carboxamido)ethoxy)propanamido)methyl)cyclohexyl)glutaramide] | 9.24 | 89.5 | 0.631
2 | CC(C)N(C)[C@@H]1CC[C@H](N2CC[C@H](Nc3ncnc4ccc(C(F)(F)F)cc34)C2=O)[C@H](NC(=O)CCOCCNC(=O)CCCO[C@H]2CC[C@@H](OCCNC(=O)[C@H]3CC(=O)N(C)[C@@H]3c3cccnc3)CC2)C1 [Example 6, (2S,3S)-N-(2-(((1s,4R)-4-(4-((2-(3-(((1R,2S,5R)-5-(Isopropyl(methyl)amino)-2-((S)-2-oxo-3-((6-(trifluoromethyl)quinazolin-4-yl)amino)pyrrolidin-1-yl)cyclohexyl)amino)-3-oxopropoxy)ethyl)amino)-4-oxobutoxy)cyclohexyl)oxy)ethyl)-1-methyl-5-oxo-2-(pyridin-3-yl)pyrrolidine-3-carboxamide] | 9.282 | 82 | 0.2
3 | CC(C)N(C)[C@@H]1CC[C@H](N2CC[C@H](Nc3ncnc4ccc(C(F)(F)F)cc34)C2=O)[C@H](NC(=O)COCCNC(=O)CNC(=O)CCOCCOCCNC(=O)[C@H]2CC(=O)N(C)[C@@H]2c2cccnc2)C1 [Example 80, (2S,3S)-N-(1-(((1R,2S,5R)-5-(Isopropyl(methyl)amino)-2-((S)-2-oxo-3-((6-(trifluoromethyl)quinazolin-4-yl)amino)pyrrolidin-1-yl)cyclohexyl)amino)-1,7,10-trioxo-3,13,16-trioxa-6,9-diazaoctadecan-18-yl)-1-methyl-5-oxo-2-(pyridin-3-yl)pyrrolidine-3-carboxamide] | 9.109 | 89 | 3.98
4 | CC(C)N(C)[C@@H]1CC[C@H](N2CC[C@H](Nc3ncnc4ccc(C(F)(F)F)cc34)C2=O)[C@H](NC(=O)[C@H]2CC[C@H](CNC(=O)CCCC(=O)NCCCOCCCNC(=O)[C@H]3CC(=O)N(C)[C@@H]3c3cccnc3)CC2)C1 [Example 20, N1-(((1R,4r)-4-(((1R,2S,5R)-5-(Isopropyl(methyl)amino)-2-((S)-2-oxo-3-((6-(trifluoromethyl)quinazolin-4-yl)amino)pyrrolidin-1-yl)cyclohexyl)carbamoyl)cyclohexyl)methyl)-N5-(3-(3-((2S,3S)-1-methyl-5-oxo-2-(pyridin-3-yl)pyrrolidine-3-carboxamido)propoxy)propyl)glutaramide] | 8.8705 | 79 | 0.316
5 | CC(C)N(C)[C@@H]1CC[C@H](N2CC[C@H](Nc3ncnc4ccc(C(F)(F)F)cc34)C2=O)[C@H](NC(=O)CCOCCNC(=O)COCCNC(=O)CCOCCNC(=O)[C@H]2CC(=O)N(C)[C@@H]2c2cccnc2)C1 [Example 163, (2S,3S)-N-(19-(((1R,2S,5R)-5-(Isopropyl(methyl)amino)-2-((S)-2-oxo-3-((6-(trifluoromethyl)quinazolin-4-yl)amino)pyrrolidin-1-yl)cyclohexyl)amino)-6,12,19-trioxo-3,10,16-trioxa-7,13-diazanonadecyl)-1-methyl-5-oxo-2-(pyridin-3-yl)pyrrolidine-3-carboxamide] | 9.07 | 89 | 0.871
6 | CC(C)N(C)[C@@H]1CC[C@H](N2CC[C@H](Nc3ncnc4ccc(C(F)(F)F)cc34)C2=O)[C@H](NC(=O)COCCNC(=O)CCOCCNC(=O)CCOCCNC(=O)[C@H]2CC(=O)N(C)[C@@H]2c2cccnc2)C1 [Example 47, (2S,3S)-N-(1-(((1R,2S,5R)-5-(Isopropyl(methyl)amino)-2-((S)-2-oxo-3-((6-(trifluoromethyl)quinazolin-4-yl)amino)pyrrolidin-1-yl)cyclohexyl)amino)-1,7,14-trioxo-3,10,17-trioxa-6,13-diazanonadecan-19-yl)-1-methyl-5-oxo-2-(pyridin-3-yl)pyrrolidine-3-carboxamide] | 9.051 | 73 | 0.316
7 | CN1C(=O)C[C@H](C(=O)NCCO[C@H]2CC[C@@H](OCCCC(=O)N[C@H]3CC[C@H](C(=O)N[C@@H]4C[C@H](NC(C)(C)C)CC[C@@H]4N4CC[C@H](Nc5ncnc6ccc(C(F)(F)F)cc56)C4=O)CC3)CC2)[C@H]1c1cccnc1 [Example 2, (2S,3S)-N-(2-(((1S,4R)-4-(4-(((1R,4R)-4-(((1R,2S,5R)-5-(tert-Butylamino)-2-((S)-2-oxo-3-((6-(trifluoromethyl)quinazolin-4-yl)amino)pyrrolidin-1-yl)cyclohexyl)carbamoyl)cyclohexyl)amino)-4-oxobutoxy)cyclohexyl)oxy)ethyl)-1-methyl-5-oxo-2-(pyridin-3-yl)pyrrolidine-3-carboxamide] | 9.4775 | 92.3 | 0.398
8 | CC(C)N(C)[C@@H]1CC[C@H](N2CC[C@H](Nc3ncnc4ccc(C(F)(F)F)cc34)C2=O)[C@H](NC(=O)C2CCN(C3CCN(C(=O)CCCCCCCCCNC(=O)[C@@H]4CC(=O)N(C)[C@H]4c4cccnc4)CC3)CC2)C1 [Example 157, N-((1R,2S,5R)-5-(Isopropyl(methyl)amino)-2-((S)-2-oxo-3-((6-(trifluoromethyl)quinazolin-4-yl)amino)pyrrolidin-1-yl)cyclohexyl)-1′-(10-((2R,3R)-1-methyl-5-oxo-2-(pyridin-3-yl)pyrrolidine-3-carboxamido)decanoyl)-[1,4′-bipiperidine]-4-carboxamide] | 10.135 | 79 | 0.631
9 | CC(C)N(C)[C@@H]1CC[C@H](N2CC[C@H](Nc3ncnc4ccc(C(F)(F)F)cc34)C2=O)[C@H](NC(=O)CCOCCNC(=O)CCOCCNC(=O)CCOCCNC(=O)[C@H]2CC(=O)N(C)[C@@H]2c2cccnc2)C1 [Example 46, (2S,3S)-N-(20-(((1R,2S,5R)-5-(Isopropyl(methyl)amino)-2-((S)-2-oxo-3-((6-(trifluoromethyl)quinazolin-4-yl)amino)pyrrolidin-1-yl)cyclohexyl)amino)-6,13,20-trioxo-3,10,17-trioxa-7,14-diazaicosyl)-1-methyl-5-oxo-2-(pyridin-3-yl)pyrrolidine-3-carboxamide] | 9.074 | 96 | 0.501
10 | CC(C)N(C)[C@@H]1CC[C@H](N2CC[C@H](Nc3ncnc4ccc(C(F)(F)F)cc34)C2=O)[C@H](NC(=O)[C@H]2CC[C@H](NC(=O)CCCOCCCCOCCNC(=O)[C@H]3CC(=O)N(C)[C@@H]3c3cccnc3)CC2)C1 [Example 121, (2S,3S)-N-(2-(4-(4-(((1R,4r)-4-(((1R,2S,5R)-5-(Isopropyl(methyl)amino)-2-((S)-2-oxo-3-((6-(trifluoromethyl)quinazolin-4-yl)amino)pyrrolidin-1-yl)cyclohexyl)carbamoyl)cyclohexyl)amino)-4-oxobutoxy)butoxy)ethyl)-1-methyl-5-oxo-2-(pyridin-3-yl)pyrrolidine-3-carboxamide] | 9.332 | 69 | 1.26
11 | CC(C)N(C)[C@@H]1CC[C@H](N2CC[C@H](Nc3ncnc4ccc(C(F)(F)F)cc34)C2=O)[C@H](NC(=O)[C@H]2CC[C@@H](NC(=O)CCCO[C@H]3CC[C@@H](OCCNC(=O)[C@H]4CC(=O)N(C)[C@@H]4c4cccnc4)CC3)CC2)C1 [Example 3, (2S,3S)-N-(2-(((1S,4R)-4-(4-(((1S,4S)-4-(((1R,2S,5R)-5-(Isopropyl(methyl)amino)-2-((S)-2-oxo-3-((6-(trifluoromethyl)quinazolin-4-yl)amino)pyrrolidin-1-yl)cyclohexyl)carbamoyl)cyclohexyl)amino)-4-oxobutoxy)cyclohexyl)oxy)ethyl)-1-methyl-5-oxo-2-(pyridin-3-yl)pyrrolidine-3-carboxamide] | 9.2795 | 87 | 0.501
